# According to patent US20230265094A1, “RIPK1 INHIBITORS AND METHODS OF USE” (Merck Sharp & Dohme LLC, priority 2020, published 2023):
# Where a name gives a salt, the structure may show the parent alone.
# Target: T1, RIPK1 (Homo sapiens, UniProt Q13546)
# T1 construct: recombinant GST-RIPK1 kinase domain (residues 1-327) enzyme produced from baculovirus-transfected Sf21 cells; host or cells: baculovirus-transfected Sf21 insect cells
# T1 sequence (Q13546 1-327): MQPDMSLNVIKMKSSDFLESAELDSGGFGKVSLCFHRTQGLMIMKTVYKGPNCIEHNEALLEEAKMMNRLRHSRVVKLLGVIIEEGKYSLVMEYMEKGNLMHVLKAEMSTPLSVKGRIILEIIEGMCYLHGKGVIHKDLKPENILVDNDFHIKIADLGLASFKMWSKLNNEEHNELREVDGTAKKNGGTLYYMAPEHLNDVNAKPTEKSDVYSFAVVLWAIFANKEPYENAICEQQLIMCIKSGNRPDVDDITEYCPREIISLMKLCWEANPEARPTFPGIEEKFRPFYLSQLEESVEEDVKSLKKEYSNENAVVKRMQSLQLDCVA
# Experiment: RIPK1-ADP-Glo enzymatic assay
# Format: biochemical
# Details: ADP-Glo luminescent ADP detection; 25 nM GST-RIPK1 kinase domain (residues 1-327), 300 μM ATP, dephosphorylated-MBP substrate; 30 min pre-incubation, 150 min reaction
# Summary of the method: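 GST-RIPK1 kinase domain (residues 1-327, Sf21-expressed), 25 nM final, pre-incubated 30 min with compound (10-point 1:3 series from 100000 nM), then reacted 150 min with 300 μM ATP and 3 μM dephosphorylated MBP in HEPES pH 7.3 buffer. ADP read by ADP-Glo luminescence; EC50 from four-parameter fit.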
row,SMILES,EC50 [nM]
1,"C[C@@H]1[C@@H](Oc2ccc(F)cc2)CN1C(=O)N1N=CC[C@H]1c1cncc(F)c1 [Example 2.22, ((2R,3S)-3-(4-fluorophenoxy)-2-methylazetidin-1-yl)((S)-5-(5-fluoropyridin-3-yl)-4,5-dihydro-1H-pyrazol-1-yl)methanone]",7.6
2,"O=C(N1CC(F)(c2ccccc2)C1)N1N=CC[C@H]1c1cc(F)cc(F)c1 [Example 1.43, (S)-(5-(3,5-difluorophenyl)-4,5-dihydro-1H-pyrazol-1-yl)(3-fluoro-3-phenylazetidin-1-yl)methanone]",775
3,"Cc1ncc([C@@H]2CC=NN2C(=O)N2CC(C)(Oc3ccc(F)cc3)C2)cc1F [Example 2.30, (S)-(5-(5-fluoro-6-methylpyridin-3-yl)-4,5-dihydro-1H-pyrazol-1-yl)(3-(4-fluorophenoxy)-3-methylazetidin-1-yl)methanone]",14.2
4,"O=C(N1CCC1Cc1ccccc1)N1N=CC[C@H]1c1cc(F)cc(F)c1 (mixture of isomers) [Example 1.22, ((S)-2-benzylazetidin-1-yl)((R and S)-5-(3,5-difluorophenyl)-4,5-dihydro-1H-pyrazol-1-yl)methanone]",73.6
5,"O=C(N1CC(OCc2ncc(Br)s2)C1)N1N=CC[C@H]1c1cc(F)cc(F)c1 [Example 1.52, (S)-(3-((5-bromothiazol-2-yl)methoxy)azetidin-1-yl)(5-(3,5-difluorophenyl)-4,5-dihydro-1H-pyrazol-1-yl)methanone]",23.9
6,"C[C@@H]1[C@@H](Oc2ccnc(C#N)c2)CN1C(=O)N1N=CC[C@H]1c1cc(F)cc(F)c1 [Example 2.37, 4-(((2R,3S)-1-((S)-5-(3,5-difluorophenyl)-4,5-dihydro-1H-pyrazole-1-carbonyl)-2-methylazetidin-3-yl)oxy)picolinonitrile]",6.6
7,"O=C(N1CC(Nc2ccccc2)C1)N1N=CC[C@H]1c1cc(F)cc(F)c1 [Example 2.3, (S)-(5-(3,5-difluorophenyl)-4,5-dihydro-1H-pyrazol-1-yl)(3-(phenylamino)azetidin-1-yl)methanone]",6.7
8,"O=C(N1CC(Oc2ncc(Cn3cccn3)s2)C1)N1N=CC[C@H]1c1cc(F)cc(F)c1 [Example 3.8, (S)-(3-((5-((1H-pyrazol-1-yl)methyl)thiazol-2-yl)oxy)azetidin-1-yl)(5-(3,5-difluorophenyl)-4,5-dihydro-1H-pyrazol-1-yl)methanone, TFA salt]",105
9,"CC1(Oc2ccccc2)CN(C(=O)N2N=CCC2c2cc(F)cc(F)c2)C1 (racemic) [Example 1.2, (R and S)-(5-(3,5-difluorophenyl)-4,5-dihydro-1H-pyrazol-1-yl)(3-methyl-3-phenoxyazetidin-1-yl)methanone, TFA salt]",9.7
10,"CC1(Oc2ccc(F)cc2)CN(C(=O)N2N=CC[C@H]2c2cncc(C#N)c2)C1 [Example 2.32, (S)-5-(1-(3-(4-fluorophenoxy)-3-methylazetidine-1-carbonyl)-4,5-dihydro-1H-pyrazol-5-yl)nicotinonitrile]",25.5
11,"CC1(Oc2ccc(F)cc2)CN(C(=O)N2N=CC[C@H]2c2cc(F)cc(F)c2)C1 [Example 2.33, (S)-(5-(3,5-difluorophenyl)-4,5-dihydro-1H-pyrazol-1-yl)(3-(4-fluorophenoxy)-3-methylazetidin-1-yl)methanone]",19.8
12,"Cc1ccccc1OC1CN(C(=O)N2N=CC[C@H]2c2cc(F)cc(F)c2)C1 [Example 1.49, (S)-(5-(3,5-difluorophenyl)-4,5-dihydro-1H-pyrazol-1-yl)(3-(o-tolyloxy)azetidin-1-yl)methanone]",11.7
13,"CC1(O)CN(C(=O)N2N=CC[C@H]2c2cc(F)cc(F)c2)C1 [Example 1.28, (S)-(5-(3,5-difluorophenyl)-4,5-dihydro-1H-pyrazol-1-yl)(3-hydroxy-3-methylazetidin-1-yl)methanone]",3590
14,"C[C@@H]1[C@H](Oc2ccc(F)cc2)CN1C(=O)N1N=CC[C@H]1c1cc(F)cc(F)c1 [Example 2.21, ((S)-5-(3,5-difluorophenyl)-4,5-dihydro-1H-pyrazol-1-yl)((2R,3R)-3-(4-fluorophenoxy)-2-methylazetidin-1-yl)methanone]",39.1
15,"Cc1csc(OC2CN(C(=O)N3N=CC[C@H]3c3cc(F)cc(F)c3)C2)n1 [Example 3.5, (S)-(5-(3,5-difluorophenyl)-4,5-dihydro-1H-pyrazol-1-yl)(3-((4-methylthiazol-2-yl)oxy)azetidin-1-yl)methanone, TFA salt]",8.9
16,"O=C(N1CC(O)C1)N1N=CC[C@H]1c1cc(F)cc(F)c1 [Example 1.15, (S)-(5-(3,5-difluorophenyl)-4,5-dihydro-1H-pyrazol-1-yl)(3-hydroxyazetidin-1-yl)methanone]",3680

row,SMILES,EC50 [nM]
1,"N#Cc1cc(C(F)(F)C2CN(C(=O)N3N=CC[C@H]3c3cc(F)cc(F)c3)C2)ccn1 [Example 2.41, (S)-4-((1-(5-(3,5-difluorophenyl)-4,5-dihydro-1H-pyrazole-1-carbonyl)azetidin-3-yl)difluoromethyl)picolinonitrile]",22.9
2,"C[C@H]1[C@@H](Oc2ccccc2)CN1C(=O)N1N=CC[C@H]1c1cc(F)cc(F)c1 (single isomer, unassigned) [Example 1.13, ((S)-5-(3,5-difluorophenyl)-4,5-dihydro-1H-pyrazol-1-yl)((2S,3S or 2R,3R)-2-methyl-3-phenoxyazetidin-1-yl)methanone, TFA salt]",7.6
3,"O=C(N1CC(Oc2ccccc2)C1)N1N=CC[C@@H]1c1cc(F)cc(F)c1 [Example 1.4, (R)-(5-(3,5-difluorophenyl)-4,5-dihydro-1H-pyrazol-1-yl)(3-phenoxyazetidin-1-yl)methanone, TFA salt]",600
4,"CC1(Oc2ccc(F)cc2)CN(C(=O)N2N=CC[C@H]2c2ccc(Cl)cc2)C1 [Example 2.34, (S)-(5-(4-chlorophenyl)-4,5-dihydro-1H-pyrazol-1-yl)(3-(4-fluorophenoxy)-3-methylazetidin-1-yl)methanone]",12.7
5,"O=C(N1CC(OCc2ccccc2)C1)N1N=CC[C@H]1c1cc(F)cc(F)c1 [Example 1.25, (S)-(3-(benzyloxy)azetidin-1-yl)(5-(3,5-difluorophenyl)-4,5-dihydro-1H-pyrazol-1-yl)methanone]",11.8
6,"O=C(N1CC(Oc2ccccc2)C1)N1N=CC[C@H]1c1cccnc1 [Example 2.14, (S)-(3-phenoxyazetidin-1-yl)(5-(pyridin-3-yl)-4,5-dihydro-1H-pyrazol-1-yl)methanone]",20.5
7,"CC(c1ccccc1)C1CN(C(=O)N2N=CC[C@H]2c2cc(F)cc(F)c2)C1 (single isomer, unassigned) [Example 2.42, ((S)-5-(3,5-difluorophenyl)-4,5-dihydro-1H-pyrazol-1-yl)(3-((R or S)-1-phenylethyl)azetidin-1-yl)methanone]",18.6
8,"C[C@@H]1[C@H](Oc2ccnc(C#N)c2)CN1C(=O)N1N=CC[C@H]1c1cc(F)cc(F)c1 [Example 2.38, 4-(((2R,3R)-1-((S)-5-(3,5-difluorophenyl)-4,5-dihydro-1H-pyrazole-1-carbonyl)-2-methylazetidin-3-yl)oxy)picolinonitrile]",85.9
9,"O=C(N1CC(c2ncccn2)C1)N1N=CC[C@H]1c1cc(F)cc(F)c1 [Example 1.18, (S)-(5-(3,5-difluorophenyl)-4,5-dihydro-1H-pyrazol-1-yl)(3-(pyrimidin-2-yl)azetidin-1-yl)methanone]",325
10,"CCOC1CN(C(=O)N2N=CC[C@H]2c2cc(F)cc(F)c2)C1 [Example 2.2, (S)-(5-(3,5-difluorophenyl)-4,5-dihydro-1H-pyrazol-1-yl)(3-ethoxyazetidin-1-yl)methanone]",27.2
11,"O=C(N1CC(Oc2ccncc2)C1)N1N=CC[C@H]1c1cc(F)cc(F)c1 [Example 1.8, (S)-(5-(3,5-difluorophenyl)-4,5-dihydro-1H-pyrazol-1-yl)(3-(pyridin-4-yloxy)azetidin-1-yl)methanone, TFA salt]",8.7
12,"O=C(N1CC(OC2CCC2)C1)N1N=CC[C@H]1c1cc(F)cc(F)c1 [Example 2.47, (S)-(3-cyclobutoxyazetidin-1-yl)(5-(3,5-difluorophenyl)-4,5-dihydro-1H-pyrazol-1-yl)methanone]",92.7
13,"C[C@@H]1[C@H](Oc2ccc(F)cc2)CN1C(=O)N1N=CC[C@H]1c1ccc(Cl)cc1 [Example 2.20, ((S)-5-(4-chlorophenyl)-4,5-dihydro-1H-pyrazol-1-yl)((2R,3R)-3-(4-fluorophenoxy)-2-methylazetidin-1-yl)methanone]",25.7
14,"O=C(N1CC(c2ccncn2)C1)N1N=CC[C@H]1c1cc(F)cc(F)c1 [Example 1.51, (S)-(5-(3,5-difluorophenyl)-4,5-dihydro-1H-pyrazol-1-yl)(3-(pyrimidin-4-yl)azetidin-1-yl)methanone]",1110
15,"C[C@@H]1[C@@H](Oc2ccc(F)cc2)CN1C(=O)N1N=CC[C@H]1c1cc(F)cc(F)c1 [Example 2.26, ((S)-5-(3,5-difluorophenyl)-4,5-dihydro-1H-pyrazol-1-yl)((2R,3S)-3-(4-fluorophenoxy)-2-methylazetidin-1-yl)methanone]",7.8
